# Data as given in BindingDB's records for doi:10.3109/14756360903468171 (2010).
# Target: T1, Peroxisome proliferator-activated receptor gamma (Homo sapiens, UniProt P37231)
# T1 sequence (P37231 whole entry): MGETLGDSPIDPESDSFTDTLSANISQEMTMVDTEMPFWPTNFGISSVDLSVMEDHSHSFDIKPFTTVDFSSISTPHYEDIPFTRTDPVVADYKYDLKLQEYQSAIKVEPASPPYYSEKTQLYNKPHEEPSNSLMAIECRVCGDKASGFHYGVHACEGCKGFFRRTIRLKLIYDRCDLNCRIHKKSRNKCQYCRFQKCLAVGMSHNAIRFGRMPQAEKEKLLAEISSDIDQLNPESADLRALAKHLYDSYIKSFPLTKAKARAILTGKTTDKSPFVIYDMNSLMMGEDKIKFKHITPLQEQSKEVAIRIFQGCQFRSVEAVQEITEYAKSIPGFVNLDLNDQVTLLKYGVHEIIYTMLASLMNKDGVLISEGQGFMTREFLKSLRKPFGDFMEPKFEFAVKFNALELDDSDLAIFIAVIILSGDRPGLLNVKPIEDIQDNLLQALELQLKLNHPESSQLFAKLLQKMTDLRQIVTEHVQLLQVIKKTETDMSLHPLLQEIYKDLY
# Experiment: Pharmacological In Vitro Assay
# Settings: pH 8.2; 4 °C
# Experimental: Binding assays were performed in 96-well plate format, using a classical filtration assay with a human full length PPARγ construct (GST-PPAR LBD (25 μg/mL)) expressed in bacteria with some modifications regarding the conditionsof the experiments. The membrane-associated PPARγ was used as the biological source as previously described. Binding buffer consisted of 10 mM Tris/HCl, pH 8.2, containing 50 mM KCl and 1 mM dithiothreitol. Membrane preparations (5 μg/mL) were incubated for 180 min at 4°C in the presence of [3H]rosiglitazone (BRL49653, Amersham) (4 nM) and the tested compounds. Nonspecific binding was defined using an excess of unlabeled rosiglitazone (10 μM). Incubation was terminated by the addition of ice-cold 50 mM Tris/HCl buffer pH 7.4, followed by rapid filtrationunder reduced pressure through Whatman GF/C filter plates presoaked with ice-cold buffer, followed by three successive washes with the same buffer. Radioactivity was measured in a TopCount apparatus (Packard).
row,Compound,Ki [µM]
1,CCCCCCCCOc1nc2ccccc2cc1C(O)CC#CCCCC(=O)OC (centres undefined) [8-Hydroxy-8-(2-octyloxy-quinolin-3-yl)-oct-5-ynoic acid methyl ester (8c)],> 10
2,CCCCCOc1nc2c(ccc3ccccc32)cc1C(O)CC#CCCCC(=O)OC (centres undefined) [8-Hydroxy-8-(2-pentyloxy-benzo[h]quinolin-3-yl)-oct-5-ynoic acid methyl ester (26b)],> 10
3,CCCCCOc1nc2ccccc2cc1C(O)CC#CCCCC(=O)NCCO (centres undefined) [8-Hydroxy-8-(2-pentyloxy-quinolin-3-yl)-oct-5-ynoic acid (2-hydroxy-ethyl)-amide (14a)],> 10
4,CCCCCOc1nc2ccccc2cc1C(O)CC#CCCCC(=O)OC (centres undefined) [8-Hydroxy-8-(2-pentyloxy-quinolin-3-yl)-oct-5-ynoic acid methyl ester],> 10
5,COCCCOc1nc2ccccc2cc1C(O)CC#CCCCC(=O)OC (centres undefined) [8-Hydroxy-8-[2-(3-methoxy-propoxy)-quinolin-3-yl]-oct-5-ynoic acid methyl ester (8d)],> 10
6,"COC(=O)CCCC#CCC(O)c1cc2ccccc2nc1OCCCC(F)(F)F (centres undefined) [8-Hydroxy-8-[2-(4,4,4-trifluoro-butoxy)-quinolin-3-yl]-oct-5-ynoic acid methyl ester (8e)]",> 10
7,COc1nc2ccccc2cc1C(O)CC#CCCCC(=O)O (centres undefined) [Sodium 8-hydroxy-8-(2-methoxy-quinolin-3-yl)-oct-5-ynoate (9b)],> 10
8,"O=C(O)CCCC#CCC(O)c1cc2ccccc2nc1OCCCC(F)(F)F (centres undefined) [Sodium 8-hydroxy-8-[2-(4,4,4-trifluoro-butoxy)-quinolin-3-yl]-oct-5-ynoate (9e)]",> 10

# The remaining lines, values ahead:
row,Ki [µM],Compound
1,0.378,CCCCCCCCOc1nc2ccccc2cc1C(O)CC#CCCCC(=O)O (centres undefined) [Sodium 8-hydroxy-8-(2-octyloxy-quinolin-3-yl)-oct-5-ynoate (9c)]
2,> 10,CCCCCOc1nc2c(ccc3ccccc32)cc1C(O)CC#CCCCC(=O)O (centres undefined) [Sodium 8-hydroxy-8-(2-pentyloxy-benzo[h]quinolin-3-yl)-oct-5-ynoate (27b)]
3,0.583,CCCCCOc1nc2ccc(OC)cc2cc1C(O)CC#CCCCC(=O)O (centres undefined) [Sodium 8-hydroxy-8-(6-methoxy-2-pentyloxy-quinolin-3-yl)-oct-5-ynoate (27a)]
4,> 10,COCCCOc1nc2ccccc2cc1C(O)CC#CCCCC(=O)O (centres undefined) [Sodium 8-hydroxy-8-[2-(3-methoxy-propoxy)-quinolin-3-yl]-oct-5-ynoate (9d)]
5,3.81,COc1nc2ccccc2cc1C(O)CC#CCOCC(=O)O (centres undefined) [Sodium [5-hydroxy-5-(2-methoxy-quinolin-3-yl)-pent-2-ynyloxy]-acetate (18b)]
6,1.93,CCCCCOc1nc2ccccc2cc1C(O)CC#CCOCC(=O)O (centres undefined) [Sodium [5-hydroxy-5-(2-pentyloxy-quinolin-3-yl)-pent-2-ynyloxy]-acetate (18a)]
